This is an account of results in article PMC10761937, “Functional engineering of human iPSC‐derived parasympathetic neurons enhances responsiveness to gastrointestinal hormones” (FEBS Open Bio, 2023).

In assay [1] the test system is GLP1R‐neurons. In words: Ca^2+ imaging, GLP1R‐neurons (iPSC‐derived). As to conditions: 10 nM GLP1 (GLP1 (7–37) in method), day 35, Fluo‐8 AM. Format: cell-based, human. As for the experimental part: (§1) Before initiating differentiation, the iPSCs (1–2 × 10^5 cells·cm^−2; Cell lines and cell culture section) were transferred to 6‐well plates (Corning, Inc., Corning, NY, USA) coated with 2‐methacryloyloxyethyl phosphorylcholine (MPC) polymer (Lipidure CM5206E; NOF, Tokyo, Japan). The cells were maintained in mTeSR1 cGMP medium containing 10 μM Y‐27632 (Fujifilm Wako Pure Chemical Industries) for 2 or 3 days to form embryoid body (EBs) in a rotary shaker at 95 r.p.m. (OS‐762RC; Optime, Tokyo, Japan). Subsequently, iPSCs were differentiated into neural crest cells (NCCs), as previously reported. Briefly, NCCs were induced from Ebs using knockout serum replacement (KSR) medium and N2 medium with graded addition of nerve growth factors and signaling factors. KSR medium was composed of DMEM‐F12 (Fujifilm Wako Pure Chemical Industries), 20% KSR (Thermo Fisher Scientific), 1% NEAA, 1% monothioglycerol (Fujifilm Wako Pure Chemical Industries), and 1% P/S. N2 medium consisted of DMEM‐F12, 1% N2 supplement (Fujifilm Wako Pure Chemical Industries), 1% NEAA, and 1% P/S. When EB formation was considered day 0 of induction, the medium was changed at days 2, 5, 7, 9, and 12. […]

Assay [2] concerns GLP1R‐neurons. In words: MEA recording of neuronal firing, GLP1R‐neurons. As to conditions: 10 nM GLP1; day 27; 0 nM n = 31 electrodes, 10 nM n = 34 electrodes; 5 min before and after ligand addition. Format: cell-based, human. Here is the method:
as §1

In assay [3] the test system is rat nodal ganglion cells. Conditions: various concentrations; ref [31], [32], [33], [34]; cited from earlier work. From the text:
Previous reports indicate that rat nodal ganglion cells respond to various concentrations of hormones, including CCK, GLP1, PYY, and 5‐HT [31, 32, 33, 34]. […] However, it is noteworthy that the overexpression of these receptors in our model may not reconstruct natural expres ...

Assay [4] concerns NPY2R‐neurons. In words: Ca^2+ imaging, NPY2R‐neurons (iPSC‐derived). Format: cell-based, human. As for the experimental part:
as §1

“GLP1: GLP1 (4280‐v; Peptide Institute, Inc.); GLP1 (7–37) in Ca2+ imaging (HAEGTFTSDVSSYLEGQAAKEFIAWLVKGRG; Glucagon-like peptide 1(7-37); UniProt P01275 98-128, looked up)”: the “Intracellular Ca^2+ concentration of selected GLP1R‐neurons (traces)” value in assay [1] (Fig. S5B) was “increased the intracellular Ca^2+ concentration”. The “Ratio of change (ΔF stim/F 0) in mean fluorescence intensity before and after ligand addition” value in assay [1] (n = 10, Student's t‐test vs. 0 nM, Fig. 6C) was “significantly increased”. Besides, the “Change rate of firing frequency” value in assay [2] was “increased the change rate of firing frequency”. Also, in assay [3], the “Response of rat nodal ganglion cells” value is listed as “respond”.

“PYY: PYY (4400‐v; Peptide Institute, Inc.); PYY (3–36) in Ca2+ imaging”: the “Intracellular Ca^2+ concentration (traces)” value in assay [4] (100 nM PYY (PYY (3–36) in method), NPY2R‐neurons day 35, Fluo‐8 AM, Fig. S5C) was “increased intracellular Ca^2+ concentration”. Also, the “Fluorescence intensity (ΔF stim/F 0)” value in assay [4] (PYY, 10 nM per Fig. 6 legend (100 nM in text and Fig. S5C), day 35, n = 10, Student's t‐test vs. 0 nM, Fig. 6E) is reported as “significantly increased fluorescence intensity”. Also, the “Response of rat nodal ganglion cells” value in assay [3] is given as “respond”.
